We go through 8 compounds from patent US20110236504A1, “VERSATILE DISINFECTANT” (priority 2008, published 2011).

Assay [1] concerns E. coli O-157. The experiment in a line: Metal ion or food preservative added to growth medium, viable count. The assay is classed as cell-based. The following applies: metal ion in growth medium. The protocol: (§1) To a standard medium for counting viable bacteria described below, each metal ion with varied concentration was added. […] Then, the number of viable bacteria was counted with time in a common procedure.
(§2) Sample bacteria: S. aureus 209P as a representative of Gram-positive bacteria • E. coli 0-157 as a representative of Gram-negative bacteria
(§3) Standard medium for counting viable bacteria: yeast extract 2.5 g, peptone 5 g, glucose 1 g, agar 15 g, pH 7.2

Assay [2] concerns S. aureus 209P. The assay is described as above. Type of assay: cell-based. As to the method: as §1, §2, §3
In assay [3] the test system is E. coli O-157. The assay is described as above. As to conditions: food preservative in growth medium. Type of assay: cell-based.
Assay [4] concerns sample bacteria (S. aureus 209P, E. coli O-157). The experiment in a line: Death rate over time, food preservative in purified water pH 3.0.
Where [5] appears, read: food preservative in growth medium.

With `O=[N+]([O-])[O-].[Ag+]` [Ag^+, AgNO3], in assay [1], the “(a) Antiproliferative activity, concentration” value (“(a) Antiproliferative activity” for short) is 0.05~2 ppm; the “(b) Bacteriostatic activity, concentration” value (“(b) Bacteriostatic activity” for short) is listed as 2~4 ppm; the “(c) Bactericidal activity, concentration” value came to 4 ppm>.
Consider `C/C=C/C=C/C(=O)[O-].[K+]` [Potassium sorbate], for which the entries for the “(a) Antiproliferative activity” value in assay [2] (setting [5]) and in assay [3] were 35~250 ppm and 30~250 ppm, respectively. Further, the “(b) Bacteriostatic activity” value in assay [2] (setting [5]) came out at 200 ppm>; in assay [3], 250 ppm>. The Death rate is 0 in assay [4] (50 ppm, 5 min); 0 in assay [4] (50 ppm, 10 min); 0 in assay [4] (50 ppm, 15 min); 2 in assay [4] (50 ppm, 30 min); 5 in assay [4] (50 ppm, 60 min); 8 in assay [4] (50 ppm, 90 min). Further, the Death rate is listed as 12 in assay [4] (50 ppm, 120 min); 0 in assay [4] (200 ppm, 5 min); 0 in assay [4] (200 ppm, 10 min); 0 in assay [4] (200 ppm, 15 min); 2 in assay [4] (200 ppm, 30 min); 6 in assay [4] (200 ppm, 60 min). Also, the Death rate is 10 in assay [4] (200 ppm, 90 min); 15 in assay [4] (200 ppm, 120 min); 0 in assay [4] (500 ppm, 5 min); 0 in assay [4] (500 ppm, 10 min); 1 in assay [4] (500 ppm, 15 min); 3 in assay [4] (500 ppm, 30 min). In addition, the Death rate in assay [4] (500 ppm, 60 min) was found to be 7; in assay [4] (500 ppm, 90 min), 12; in assay [4] (500 ppm, 120 min), 18.
In the case of `O.O.O.O.O.O.O.O=S(=O)([O-])[O-].[Ni+2]` [Ni^2+, NiSO4•7H2O], in assay [2] (metal ion in growth medium), the “(a) Antiproliferative activity” value was 25~150 ppm; the “(b) Bacteriostatic activity” value was 120~300 ppm; the “(c) Bactericidal activity, concentration” value worked out at 300 ppm>; the “Acceleration of growth, concentration” value came out at 5 ppm<. Further, in assay [1], the “(a) Antiproliferative activity” value is 20~170 ppm; the “(b) Bacteriostatic activity” value is 150~350 ppm; the “(c) Bactericidal activity, concentration” value came out at 350 ppm>; the “Acceleration of growth, concentration” value amounted to 10 ppm<.
In the case of `O.O.O.O.O.O.O.O=S(=O)([O-])[O-].[Zn+2]` [Zn^2+, ZnSO4•7H2O], in assay [2] (metal ion in growth medium), the “(a) Antiproliferative activity” value is reported as 12~18 ppm; the “(b) Bacteriostatic activity” value is 16~200 ppm; the “(c) Bactericidal activity, concentration” value was 200 ppm>; the “Acceleration of growth, concentration” value was found to be 10 ppm<. For the same compound, in assay [1], the “(a) Antiproliferative activity” value was 10~15 ppm; the “(b) Bacteriostatic activity” value is recorded as 15~250 ppm; the “(c) Bactericidal activity, concentration” value is given as 250 ppm>; the “Acceleration of growth, concentration” value stood at 10 ppm<.
As for `CCOC(=O)c1ccc(O)cc1` [Ethyl para-hydroxybenzoate], the “(a) Antiproliferative activity” value in assay [2] (setting [5]) was 50~300 ppm; in assay [3], 40~300 ppm. In addition, the “(b) Bacteriostatic activity” value in assay [2] (setting [5]) came out at 250 ppm>; in assay [3], 230 ppm>. In addition, the Death rate was determined as 0 in assay [4] (50 ppm, 5 min); 0 in assay [4] (50 ppm, 10 min); 0 in assay [4] (50 ppm, 15 min); 2 in assay [4] (50 ppm, 30 min); 5 in assay [4] (50 ppm, 60 min); 8 in assay [4] (50 ppm, 90 min). The Death rate amounted to 12 in assay [4] (50 ppm, 120 min); 0 in assay [4] (200 ppm, 5 min); 0 in assay [4] (200 ppm, 10 min); 0 in assay [4] (200 ppm, 15 min); 2 in assay [4] (200 ppm, 30 min); 5 in assay [4] (200 ppm, 60 min). The Death rate in assay [4] (200 ppm, 90 min) turned out to be 10; in assay [4] (200 ppm, 120 min) it was 12; in assay [4] (500 ppm, 5 min) it was 0; in assay [4] (500 ppm, 10 min) it was 0; in assay [4] (500 ppm, 15 min), 0; in assay [4] (500 ppm, 30 min), 2. Also, the Death rate in assay [4] (500 ppm, 60 min) was 7; in assay [4] (500 ppm, 90 min), 12; in assay [4] (500 ppm, 120 min), 15.
As to `O=C(O)c1ccccc1` [Benzoic acid], the “(a) Antiproliferative activity” value in assay [2] (setting [5]) and in assay [3] was 25~200 ppm in each case. The “(b) Bacteriostatic activity” value in assay [2] (setting [5]) and in assay [3] was 180 ppm> in each case. Moreover, the Death rate in assay [4] (50 ppm, 5 min) was determined as 0; in assay [4] (50 ppm, 10 min), 0; in assay [4] (50 ppm, 15 min) it was 0; in assay [4] (50 ppm, 30 min), 1; in assay [4] (50 ppm, 60 min), 5; in assay [4] (50 ppm, 90 min) it was 10. The Death rate is 12 in assay [4] (50 ppm, 120 min); 0 in assay [4] (200 ppm, 5 min); 0 in assay [4] (200 ppm, 10 min); 0 in assay [4] (200 ppm, 15 min); 2 in assay [4] (200 ppm, 30 min); 7 in assay [4] (200 ppm, 60 min). For the same compound, the Death rate in assay [4] (200 ppm, 90 min) stood at 10; in assay [4] (200 ppm, 120 min), 12; in assay [4] (500 ppm, 5 min) it was 0; in assay [4] (500 ppm, 10 min), 0; in assay [4] (500 ppm, 15 min), 1; in assay [4] (500 ppm, 30 min), 3. In addition, the Death rate in assay [4] (500 ppm, 60 min) was 8; in assay [4] (500 ppm, 90 min) it was 12; in assay [4] (500 ppm, 120 min), 15.
As for `C/C=C/C=C/C(=O)O` [Sorbic acid], the “(a) Antiproliferative activity” value in assay [2] (setting [5]) and in assay [3] was 20~200 ppm throughout. Further, the results for the “(b) Bacteriostatic activity” value in assay [2] (setting [5]) and in assay [3] were 150 ppm> and 200 ppm>, respectively. Also, the Death rate is recorded as 0 in assay [4] (50 ppm, 5 min); 0 in assay [4] (50 ppm, 10 min); 0 in assay [4] (50 ppm, 15 min); 2 in assay [4] (50 ppm, 30 min); 5 in assay [4] (50 ppm, 60 min); 10 in assay [4] (50 ppm, 90 min). The Death rate in assay [4] (50 ppm, 120 min) was determined as 15; in assay [4] (200 ppm, 5 min) it was 0; in assay [4] (200 ppm, 10 min), 0; in assay [4] (200 ppm, 15 min), 0; in assay [4] (200 ppm, 30 min), 2; in assay [4] (200 ppm, 60 min), 7. The Death rate is reported as 12 in assay [4] (200 ppm, 90 min); 18 in assay [4] (200 ppm, 120 min); 0 in assay [4] (500 ppm, 5 min); 0 in assay [4] (500 ppm, 10 min); 1 in assay [4] (500 ppm, 15 min); 3 in assay [4] (500 ppm, 30 min). Besides, the Death rate amounted to 10 in assay [4] (500 ppm, 60 min); 15 in assay [4] (500 ppm, 90 min); 20 in assay [4] (500 ppm, 120 min).
Regarding `O.O.O.O.O.O.[Cl-].[Cl-].[Co+2]` [Co^2+, CoCl2•6H2O], in assay [2] (metal ion in growth medium), the “(c) Bactericidal activity, concentration” value amounted to 500 ppm> and the “Acceleration of growth, concentration” value amounted to 20 ppm<. In assay [1], the “(a) Antiproliferative activity” value is recorded as 100~250 ppm; the “(b) Bacteriostatic activity” value is on record as 220~500 ppm; the “(c) Bactericidal activity, concentration” value is reported as 500 ppm>; the “Acceleration of growth, concentration” value is 25 ppm<.
